This note sets out measurements from article PMC5766581, “NF-κB inducing kinase is a therapeutic target for systemic lupus erythematosus” (Nature Communications, 2018).

Test [1] has as its system IL-12p40 production from human monocyte derived DC. Nature of the test: CD40L induced IL-12p40 production from human DCs. Type of test: cell-based. As to conditions: human monocyte derived DC, rhCD40L; mean ± SD; read-out: CD40-induced IL-12 p40 IC50. On the procedure:
Human monocytes were enriched from whole blood (Monocyte enrichment RosetteSep, Stem Cell) followed by isolation using Monocyte Isolation Kit II (Miltenyi). Isolated monocytes were cultured (RPMI-10% FBS, penicillin/streptomycin, glutamine) with rhGM-CSF (100 ng/mL) and rhIL-4 (6.5 ng/mL) (R&D Systems) for 5 days with GM-CSF replacement on day 3. On Day 5 immature monocyte derived DCs were monitored for differentiation by flow cytometry ([…], CD83^low CD86^low CD209^+/hi). […] After 24 h plates were centrifuged and supernatants were removed for IL-12p40 cytokine measurement by ELISA (BD Biosciences). Plots and IC50 measurements were generated using GraphPad Prism software.

Test [2] relates to human B cells. As to the kind of experiment: Human B cell rhCD40L proliferation assay. Type of test: cell-based. As to conditions: thymidine incorporation, day four; read-out: Human B cell anti-CD40 proliferation IC50. (In general: Dividing cells build labelled thymidine or BrdU into new DNA.)
The test system of the next test is mouse B cells. As to the kind of experiment: BAFF B cell survival assay (Cell Titer Glo). Type of test: cell-based. As to conditions: BAFF induced; mean ± SD. (In general: In ATP-based viability assays light output follows the ATP content of the culture.)
The test system of test [3] is rhCD40L induced ICOSL expression on human B cells. Nature of the test: ICOSL expression on human B cell assay. The following applies: ICOSL MFI by FACS, mean ± SD, read-out: CD40-induced ICOSL IC50. The class given is cell-based. On the procedure: Human B cells were isolated from whole blood. B cells were enriched by RosetteSep protocol (Stem Cell Technologies), and then isolated using Human B cell isolation kit II (Miltenyi). […] Mean fluorescent intensity (MFI) of CD40L and BAFF induced ICOSL expression was measured by flow cytometry on cells stained with anti-CD20 and anti-ICOSL, using a FACS Calibur instrument (BD). Plots and IC50 measurements were generated using GraphPad Prism Software.
(In flow cytometry, cells or beads pass a laser one at a time.)

The next test concerns the target T1, mouse NIK (Mus musculus, UniProt Q9WUL6).
T1 construct: mouse NIK kinase domain (a.a. 329–675) (1 nM); made in house; host or cells: baculovirus-infected insect cells
Nature of the test: NIK Transcreener ADP enzymatic assay. Type of test: biochemical. As to conditions: mouse NIK enzymatic activity; mean ± SD.

Test [4] relates to nuclear p52 (non-canonical NF-κB signaling). As to the kind of experiment: High content nuclear p52 imaging, anti-LTβR-stimulated HeLa cells. The class given is cell-based, human. The following applies: anti-LTβR induced, mean ± SD. As for the experimental part: (§1) The HeLa cell line was used to define the cellular selectivity of NIK inhibitors toward inhibition of classical vs. non-classical NF-κB signaling using high content cellular imaging assays. For the nuclear translocation assay p52 (non-canonical NF-κB signaling), HeLa cells were treated with different concentrations of compounds previously diluted in DMSO (final [DMSO] = 0.2% in all wells) in DMEM medium (10% FBS, 2 mM Glutamine) and then stimulated with 300 ng/mL of an anti-lymphotoxin beta receptor antibody for 4.5 h. In the REL-A nuclear translocation assay, HeLa cells were incubated with compounds for 4 h 50 min before stimulating them with 2 ng/mL TNF (R&D Systems) for 10 min. Cells were fixed with 4% paraformaldehyde, permeabilized by adding 0.1% Triton X-100 in phosphate buffered saline, and then are incubated with either 2 μg/mL anti-p52 antibody or 400 ng/mL anti-REL-A (p65) antibody. Finally, the cells are incubated with an Alexa488-labeled secondary antibody (Invitrogen) and DRAQ5 DNA stain (Biostatus). Imaging was carried out using an Opera reader (Perkin Elmer) and data were analyzed with Acapella software (Perkin Elmer). The p52 or REL-A translocation into the nucleus is quantified by the ratio of the nuclear to cytoplasmic signal intensity.

Test [5] relates to human B cells. As to the kind of experiment: BAFF B cell survival assay (Cell Titer Glo). The class given is cell-based. As to conditions: BAFF induced; mean ± SD. On the procedure:
Human B cells were isolated using Miltenyi Human B cell isolation kit following ficoll separation of buffy coats. […] Mouse B cells were isolated from mouse spleen using Miltenyi mouse B cell isolation kit II. Cells were plated in Co-star 96-well plates at either 50,000 cells/well for the survival assays or at 150,000 cells/well for the proliferation assays. Compounds diluted in DMSO (final DMSO assay concentration = 0.1%) were added to the cells. The cells were incubated with compound for one hour at 37 °C. Stimulus was then added to the plates and survival or proliferation was measured after four days. For the proliferation assays, cells were treated with either Anti-IgM (20 μg/mL) or rhCD40L (10 μg/mL; R&D) or anti-mouse CD40 (100 ng/mL). Proliferation was measured using thymidine incorporation on day four. For the BAFF survival assay, cells were treated with human or mouse rBAFF (R&D Systems) at 10 ng/ml followed by Cell Titer Glo (Promega) to measure survival on day four.

Test [6] concerns nuclear RelA (canonical NF-κB signaling). Nature of the test: High content nuclear RelA imaging, TNF-stimulated HeLa cells. The class given is cell-based, human. The following applies: TNF induced. On the procedure: as §1
In test [7] the test system is human B cells. As to the kind of experiment: Human B cell anti-IgM proliferation assay. Type of test: cell-based. The following applies: thymidine incorporation, day four.
A further test has as its system Balb/c mice. As to the kind of experiment: TNP-OVA immunization model. The following applies: 300 mg/kg P.O. BID, 10 days. The class given is in vivo, mouse. The source says: Four to nine 8-week-old female Balb/c mice were randomized into experimental groups upon delivery from vendor. […] Investigators were not blinded to experimental samples.

Each structure is given as a SMILES string. A value given as a limit tells only on which side of the number the result lay.

T1 sequence (Q9WUL6 329-675): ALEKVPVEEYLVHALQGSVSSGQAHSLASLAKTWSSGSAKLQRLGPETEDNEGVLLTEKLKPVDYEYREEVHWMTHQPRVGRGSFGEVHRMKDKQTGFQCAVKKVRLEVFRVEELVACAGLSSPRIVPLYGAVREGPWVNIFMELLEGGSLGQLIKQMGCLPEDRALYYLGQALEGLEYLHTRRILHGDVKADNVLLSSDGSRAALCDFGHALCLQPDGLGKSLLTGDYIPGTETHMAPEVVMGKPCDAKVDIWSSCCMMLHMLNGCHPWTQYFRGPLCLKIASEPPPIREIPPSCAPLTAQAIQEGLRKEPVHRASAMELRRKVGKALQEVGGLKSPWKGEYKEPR

As to `CN1CC[C@@](O)(C#Cc2cccc(-n3nc(C(N)=O)c4ccccc43)c2)C1=O` [NIK SMI2], the IC50 is 0.0607 µM in test [1]; over 10 µM with human B cells [2]; 1.75 µM in the test on mouse B cells; 0.0587 µM in [3]; 0.043 µM in test [4]; 0.36 µM with human B cells [5]. Further, the IC50 in [6] is over 2 µM; in the test with human B cells [7] it was over 10 µM. Moreover, at mouse NIK, the Ki (in general, a dissociation constant, usually derived from enzyme kinetics or from competition with a known ligand) is 0.00084 µM. For the same compound, the “germinal center B cell development and antigen-specific IgG1 production” value in the test with Balb/c mice was “reduced”.
